Measurements published in US7473822B1, “Soybean transformation and regeneration using half-seed explant” (Iowa State University Research Foundation, Inc., priority 2005, dated 2009).

Experiments:
[1] = tested on: soybean half-seed explants; experiment: Shoot induction on half-seed explants with BAP added to shoot induction medium; conditions: BAP 15-100 μM in shoot induction medium, compared to no treatment or 2.5-7.5 μM
Procedure: (§1) After co-cultivation, the half-seed explants were washed in liquid shoot induction (SI) medium (see Table III). The explants were cultured on shoot induction medium solidified with 0.7% agar in the absence of selection. The base of the explant (i.e., the part of the explant from where the embryonic axis was removed) was embedded in the medium, facing upwards. […] Shoot induction was carried out in a Percival Biological Incubator at 24° C. with an 18-hr photoperiod at 140 μmoles sec^−1m^−2 light intensity. After 14 days, the explants were transferred to fresh shoot induction medium containing 6 mg/l glufosinate. After four weeks of culture on shoot induction medium, explants were transferred to shoot elongation (SE) medium containing 6 mg/l glufosinate (see Table IV). Two to four weeks later, elongated shoots (>2.5 cm) were dipped in sterile IBA (1 mg/l) and then transferred to rooting medium (see Table V) without glufosinate. After two weeks, agar medium was rinsed off of the rooted plantlets with water, and the rooted plantlets were transplanted to soil (Redi-Earth, Peat-Lite Mix, Scotts-Sierra Horticultural Products Company, Marysville, Ohio) in jiffy pots. The plant (R0) was grown at 24° C. with an 18-hr photoperiod for one-two weeks and then transferred to the greenhouse.

[2] = tested on: Thorne soybean half-seed explants; experiment: Agrobacterium-mediated transformation and regeneration of half-seed explants from seeds soaked in BAP; conditions: for Initial Transformation Efficiency (ITE; %): ITE = no. of Liberty-resistant R0 events/no. of explants infected
Procedure: Mature Thorne soybean seeds were surface-sterilized for 16 hrs using chlorine gas, which was produced by mixing 3.5 ml of 12 N HCl with 100 ml of commercial bleach (5.25% sodium hypochloride) (Di et al., Plant Cell Rep. 15: 746-750 (1996)). […] The seeds were then split by cutting longitudinally along the hilums to separate the cotyledons, and the seed coats, primary shoots, and embryonic axes were removed, thereby generating half-seed explants. The half-seed explants were co-cultivated with A. tumefaciens for five days in the light. […]
About 50-100 half-seed explants were inoculated with 30 ml of Agrobacterium suspension culture in a 20×100 mm Petri dish at RT for 30 min. After inoculation, half-seed explants were transferred to co-cultivation medium lined with filter paper (6 explants per plate; flat side of explant in contact with filter paper) (see Table II). Co-cultivation was carried out for five days at 24° C. with 18 hr photoperiod at 140 μmoles sec^−1m^−2 light intensity.
as §1
R0 plants with two trifoliates were screened using the herbicide paint assay to identify putative transformants that expressed the bar gene. The upper surface of a leaf was painted with 150 mg/l glufosinate (herbicide Liberty®, AgrEvo, U.S.A.) along the midrib using a cotton bud. Plants were scored based on the tolerance of the leaf tissue to glufosinate at three-five days after painting. Glufosinate-resistant R0 plants were grown in the greenhouse until maturity and seeds were harvested. Subsequently, seeds from R0 plants were sown and progeny-tested to confirm the presence of the transgene in the R1 generation by spraying two-week-old seedlings with 200 mg/l glufosinate. Plants were scored one week after spraying. Thirty-two transgenic events were confirmed in the R1 progeny by spraying with 200 mg/l glufosinate using herbicide Liberty. […] Plants were fertile and produced seed.
After five days of co-cultivation, half-seed explants infected with pTF102 were assayed for transient GUS blue expression to verify T-DNA transfer. The explants were incubated overnight in 5-bromo-4-chloro-3-indolyl glucuronide (X-gluc) solution at 37° C. (Jefferson et al., EMBO J 6: 3901-3907 (1987)). After staining, the explants were de-stained with 70% ethanol to improve contrast. The incidence of GUS activity was determined based on the presence of blue-staining areas. In addition, stable GUS expression was determined after 28 days on regeneration medium or on R0 plants. The transgenic nature of the soybean plants was also confirmed in the R0 or R1 generation by histochemical GUS assay.

For `c1ccc(CNc2ncnc3nc[nH]c23)cc1` [BAP, 6-benzylaminopurine], which “shoot formation (regeneration frequency)” value [1] is on record?
The value was “enhanced shoot formation”.

And the “Freq. GUS blue (on the section of explant where shoots were induced)” value ([2]; seeds soaked in 7.5 μM BAP)?
Its value is “(10%)”.

And the “Freq. GUS blue (on the section of explant where shoots were induced), count” value (“Freq. GUS blue … count” below) ([2]; seeds soaked in 7.5 μM BAP)?
The value was 1/10.

And the “No. of Liberty-resistant R0 plants” value ([2]; seeds soaked in 7.5 μM BAP)?
The value was 0.

What about the “Reg. Freq. (%) (regeneration frequency at first shoot induction stage)” value (from here on “Reg. Freq. (%)”) ([2]; seeds soaked in 7.5 μM BAP) of the same compound?
Its value is “(8) %”.

And the “Reg. Freq. (regeneration frequency at first shoot induction stage), explants count” value ([2]; seeds soaked in 7.5 μM BAP)?
Its value is 4/50.

What about the “Initial Transformation Efficiency (ITE; %)” value ([2]; seeds soaked in 7.5 μM BAP) of the same compound?
The value was 0.0%.

And the “Freq. GUS blue (on the section of explant where shoots were induced)” value ([2]; seeds soaked in 15 μM BAP)?
The value was “(20%)”.

And the “Freq. GUS blue … count” value ([2]; seeds soaked in 15 μM BAP)?
Its value is 2/10.

And the “No. of Liberty-resistant R0 plants” value ([2]; seeds soaked in 15 μM BAP)?
Its value is 3.

What about the “Reg. Freq. (%)” value ([2]; seeds soaked in 15 μM BAP) of the same compound?
Its value is “(48) %”.

And the “Reg. Freq. (regeneration frequency at first shoot induction stage), explants count” value ([2]; seeds soaked in 15 μM BAP)?
The value was 24/50.

What about the “Initial Transformation Efficiency (ITE; %)” value ([2]; seeds soaked in 15 μM BAP) of the same compound?
The value was 6.0%.

What about the “Freq. GUS blue (on the section of explant where shoots were induced)” value ([2]; seeds soaked in 30 μM BAP) of the same compound?
Its value is “(90%)”.

And the “Freq. GUS blue … count” value ([2]; seeds soaked in 30 μM BAP)?
The value was 9/10.

And the “No. of Liberty-resistant R0 plants” value ([2]; seeds soaked in 30 μM BAP)?
Its value is 2.

What about the “Reg. Freq. (%)” value ([2]; seeds soaked in 30 μM BAP) of the same compound?
The value was “(58) %”.

And the “Reg. Freq. (regeneration frequency at first shoot induction stage), explants count” value ([2]; seeds soaked in 30 μM BAP)?
Its value is 29/50.

What about the “Initial Transformation Efficiency (ITE; %)” value ([2]; seeds soaked in 30 μM BAP) of the same compound?
Its value is 4.0%.

What about the “Freq. GUS blue (on the section of explant where shoots were induced)” value ([2]; seeds soaked in 50 μM BAP) of the same compound?
The value was “(67%)”.

And the “Freq. GUS blue … count” value ([2]; seeds soaked in 50 μM BAP)?
The value was 6/9.

What about the “No. of Liberty-resistant R0 plants” value ([2]; seeds soaked in 50 μM BAP) of the same compound?
The value was 0.

What about the “Reg. Freq. (%)” value ([2]; seeds soaked in 50 μM BAP) of the same compound?
The value was “(46) %”.

And the “Reg. Freq. (regeneration frequency at first shoot induction stage), explants count” value ([2]; seeds soaked in 50 μM BAP)?
The value was 23/50.

And the “Initial Transformation Efficiency (ITE; %)” value ([2]; seeds soaked in 50 μM BAP)?
The value was 0.0%.
